# Laboratory results taken from the supplement of paper PMC10307832.
# Columns and labels:
# Assay in all cases: relative viability (nuclei count vs DMSO), 5 days (fraction); higher = more cells survive
# NCI-H1915 = tested on: NCI-H1915
# Method in brief: (§1)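 Lung cancer cell lines in 1536-well plates were dosed by pin tool the day after seeding, either with one drug alone or with a fixed anchor-drug dose plus five library-drug doses (not always all listed) in √10 steps. After 5 days, cells were fixed and their nuclei stained in one step (final 0.05% Triton X-100, 1% formaldehyde, 1 ug/ml Hoechst), then counted on 4× images. Relative viability is the nuclei count in treated wells divided by that in vehicle wells. Values are medians of duplicate plates.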
# NCI-H647 = tested on: NCI-H647
# Method in brief: as §1
# NCI-H2023 = tested on: NCI-H2023
# Method in brief: as §1
# PC-14 = tested on: PC-14
# Method in brief: as §1
# NCI-H1734 = tested on: NCI-H1734
# Method in brief: as §1
# NCI-H1563 = tested on: NCI-H1563
# Method in brief: as §1
# NCI-H2085 = tested on: NCI-H2085
# Method in brief: as §1
# EPLC-272H = tested on: EPLC-272H
# Method in brief: as §1
# NCI-H2126 = tested on: NCI-H2126
# Method in brief: as §1
# SK-LU-1 = tested on: SK-LU-1
# Method in brief: as §1
# SW 1573 = tested on: SW 1573
# Method in brief: as §1
# H3255 = tested on: H3255
# Method in brief: as §1
# NCI-H2347 = tested on: NCI-H2347
# Method in brief: as §1
# LXF-289 = tested on: LXF-289
# Method in brief: as §1
# NCI-H727 = tested on: NCI-H727
# Method in brief: as §1
# HOP-62 = tested on: HOP-62
# Method in brief: as §1
# NCI-H1993 = tested on: NCI-H1993
# Method in brief: as §1
# LCLC-97TM1 = tested on: LCLC-97TM1
# Method in brief: as §1
# EMC-BAC-2 = tested on: EMC-BAC-2
# Method in brief: as §1
# NCI-H661 = tested on: NCI-H661
# Method in brief: as §1
# NCI-H322M = tested on: NCI-H322M
# Method in brief: as §1
# NCI-H2009 = tested on: NCI-H2009
# Method in brief: as §1
structure (smiles),measurement,setting,value
CC(=O)O[C@@]12CO[C@@H]1C[C@H](O)[C@@]1(C)C(=O)[C@H](O)C3=C(C)[C@@H](OC(=O)[C@H](O)[C@@H](NC(=O)OC(C)(C)C)c4ccccc4)C[C@@](O)([C@@H](OC(=O)c4ccccc4)[C@H]21)C3(C)C [Docetaxel] + COc1cc2c(Oc3ccc(NC(=O)C4(C(=O)Nc5ccc(F)cc5)CC4)cc3F)ccnc2cc1OCCCN1CCOCC1 [Foretinib] (partner 0.25 µM),relative viability,NCI-H1915; first compound 0.0002 µM,1.15
same,relative viability,NCI-H1915; first compound 0.000632 µM,1.05
same,relative viability,NCI-H1915; first compound 0.002 µM,0.736
same,relative viability,NCI-H1915; first compound 0.006325 µM,0.262
same,relative viability,NCI-H1915; first compound 0.02 µM,0.179
same,relative viability,NCI-H647; first compound 0.0002 µM,1.25
same,relative viability,NCI-H647; first compound 0.000632 µM,1.06
same,relative viability,NCI-H647; first compound 0.002 µM,0.179
same,relative viability,NCI-H647; first compound 0.006325 µM,0.182
same,relative viability,NCI-H647; first compound 0.02 µM,0.111
same,relative viability,NCI-H2023; first compound 0.0002 µM,0.735
same,relative viability,NCI-H2023; first compound 0.000632 µM,0.868
same,relative viability,NCI-H2023; first compound 0.002 µM,0.111
same,relative viability,NCI-H2023; first compound 0.006325 µM,0.102
same,relative viability,NCI-H2023; first compound 0.02 µM,0.0789
same,relative viability,PC-14; first compound 0.0002 µM,0.886
same,relative viability,PC-14; first compound 0.000632 µM,1.03
same,relative viability,PC-14; first compound 0.002 µM,0.576
same,relative viability,PC-14; first compound 0.006325 µM,0.117
same,relative viability,PC-14; first compound 0.02 µM,0.0977
same,relative viability,NCI-H1734; first compound 0.0002 µM,0.776
same,relative viability,NCI-H1734; first compound 0.000632 µM,0.743
same,relative viability,NCI-H1734; first compound 0.002 µM,0.404
same,relative viability,NCI-H1734; first compound 0.006325 µM,0.336
same,relative viability,NCI-H1734; first compound 0.02 µM,0.227
same,relative viability,NCI-H1563; first compound 0.0002 µM,0.988
same,relative viability,NCI-H1563; first compound 0.000632 µM,0.862
same,relative viability,NCI-H1563; first compound 0.002 µM,0.966
same,relative viability,NCI-H1563; first compound 0.006325 µM,0.922
same,relative viability,NCI-H1563; first compound 0.02 µM,0.628
same,relative viability,NCI-H2085; first compound 0.0002 µM,0.852
same,relative viability,NCI-H2085; first compound 0.000632 µM,0.965
same,relative viability,NCI-H2085; first compound 0.002 µM,0.568
same,relative viability,NCI-H2085; first compound 0.006325 µM,0.34
same,relative viability,NCI-H2085; first compound 0.02 µM,0.414
same,relative viability,EPLC-272H; first compound 0.0002 µM,0.7
same,relative viability,EPLC-272H; first compound 0.000632 µM,0.278
same,relative viability,EPLC-272H; first compound 0.002 µM,0.249
same,relative viability,EPLC-272H; first compound 0.006325 µM,0.0711
same,relative viability,EPLC-272H; first compound 0.02 µM,0.0667
same,relative viability,NCI-H2126; first compound 0.0002 µM,1.08
same,relative viability,NCI-H2126; first compound 0.000632 µM,1.14
same,relative viability,NCI-H2126; first compound 0.002 µM,0.588
same,relative viability,NCI-H2126; first compound 0.006325 µM,0.456
same,relative viability,NCI-H2126; first compound 0.02 µM,0.228
same,relative viability,SK-LU-1; first compound 0.0002 µM,0.737
same,relative viability,SK-LU-1; first compound 0.000632 µM,0.459
same,relative viability,SK-LU-1; first compound 0.002 µM,0.451
same,relative viability,SK-LU-1; first compound 0.006325 µM,0.275
same,relative viability,SK-LU-1; first compound 0.02 µM,0.196
same,relative viability,SW 1573; first compound 0.0002 µM,0.719
same,relative viability,SW 1573; first compound 0.000632 µM,1.06
same,relative viability,SW 1573; first compound 0.002 µM,0.342
same,relative viability,SW 1573; first compound 0.006325 µM,0.193
same,relative viability,SW 1573; first compound 0.02 µM,0.2
same,relative viability,H3255; first compound 0.0002 µM,0.889
same,relative viability,H3255; first compound 0.000632 µM,0.909
same,relative viability,H3255; first compound 0.002 µM,0.66
same,relative viability,H3255; first compound 0.006325 µM,0.335
same,relative viability,H3255; first compound 0.02 µM,0.266
same,relative viability,NCI-H2347; first compound 0.0002 µM,0.806
same,relative viability,NCI-H2347; first compound 0.000632 µM,0.815
same,relative viability,NCI-H2347; first compound 0.002 µM,0.541
same,relative viability,NCI-H2347; first compound 0.006325 µM,0.31
same,relative viability,NCI-H2347; first compound 0.02 µM,0.368
same,relative viability,LXF-289; first compound 0.0002 µM,0.977
same,relative viability,LXF-289; first compound 0.000632 µM,0.924
same,relative viability,LXF-289; first compound 0.002 µM,0.207
same,relative viability,LXF-289; first compound 0.006325 µM,0.147
same,relative viability,LXF-289; first compound 0.02 µM,0.0982
same,relative viability,NCI-H727; first compound 0.0002 µM,0.834
same,relative viability,NCI-H727; first compound 0.000632 µM,0.693
same,relative viability,NCI-H727; first compound 0.002 µM,0.788
same,relative viability,NCI-H727; first compound 0.006325 µM,0.507
same,relative viability,NCI-H727; first compound 0.02 µM,0.346
same,relative viability,HOP-62; first compound 0.0002 µM,1.07
same,relative viability,HOP-62; first compound 0.000632 µM,0.732
same,relative viability,HOP-62; first compound 0.002 µM,0.427
same,relative viability,HOP-62; first compound 0.006325 µM,0.295
same,relative viability,NCI-H1993; first compound 0.0002 µM,0.78
same,relative viability,NCI-H1993; first compound 0.000632 µM,0.803
same,relative viability,NCI-H1993; first compound 0.002 µM,0.659
same,relative viability,NCI-H1993; first compound 0.006325 µM,0.671
same,relative viability,NCI-H1993; first compound 0.02 µM,0.51
same,relative viability,LCLC-97TM1; first compound 0.0002 µM,0.846
same,relative viability,LCLC-97TM1; first compound 0.000632 µM,0.641
same,relative viability,LCLC-97TM1; first compound 0.002 µM,0.697
same,relative viability,LCLC-97TM1; first compound 0.006325 µM,0.218
same,relative viability,LCLC-97TM1; first compound 0.02 µM,0.146
same,relative viability,EMC-BAC-2; first compound 0.0002 µM,1.02
same,relative viability,EMC-BAC-2; first compound 0.000632 µM,0.948
same,relative viability,EMC-BAC-2; first compound 0.002 µM,0.36
same,relative viability,EMC-BAC-2; first compound 0.006325 µM,0.348
same,relative viability,EMC-BAC-2; first compound 0.02 µM,0.205
same,relative viability,NCI-H661; first compound 0.0002 µM,0.989
same,relative viability,NCI-H661; first compound 0.000632 µM,1.02
same,relative viability,NCI-H661; first compound 0.002 µM,0.982
same,relative viability,NCI-H661; first compound 0.006325 µM,0.509
same,relative viability,NCI-H661; first compound 0.02 µM,0.496
same,relative viability,NCI-H322M; first compound 0.0002 µM,0.928
same,relative viability,NCI-H322M; first compound 0.000632 µM,0.949
same,relative viability,NCI-H322M; first compound 0.002 µM,0.956
same,relative viability,NCI-H322M; first compound 0.006325 µM,0.702
same,relative viability,NCI-H322M; first compound 0.02 µM,0.463
same,relative viability,NCI-H2009; first compound 0.0002 µM,1.18
same,relative viability,NCI-H2009; first compound 0.000632 µM,1.26
same,relative viability,NCI-H2009; first compound 0.002 µM,0.952
same,relative viability,NCI-H2009; first compound 0.006325 µM,0.467
same,relative viability,NCI-H2009; first compound 0.02 µM,0.304
